According to PMC2782911 (Cancer, 2009):
Like-named read-outs stand apart in the source and are kept apart here.

Assays:
recombinant human HDAC6 = biological target: T1, recombinant human HDAC6 (Homo sapiens, UniProt Q9UBN7); assay: Recombinant human HDAC6 activity assay; assay type: biochemical; details: 1 mM, recombinant human isoform
T1 sequence (Q9UBN7 1-1215): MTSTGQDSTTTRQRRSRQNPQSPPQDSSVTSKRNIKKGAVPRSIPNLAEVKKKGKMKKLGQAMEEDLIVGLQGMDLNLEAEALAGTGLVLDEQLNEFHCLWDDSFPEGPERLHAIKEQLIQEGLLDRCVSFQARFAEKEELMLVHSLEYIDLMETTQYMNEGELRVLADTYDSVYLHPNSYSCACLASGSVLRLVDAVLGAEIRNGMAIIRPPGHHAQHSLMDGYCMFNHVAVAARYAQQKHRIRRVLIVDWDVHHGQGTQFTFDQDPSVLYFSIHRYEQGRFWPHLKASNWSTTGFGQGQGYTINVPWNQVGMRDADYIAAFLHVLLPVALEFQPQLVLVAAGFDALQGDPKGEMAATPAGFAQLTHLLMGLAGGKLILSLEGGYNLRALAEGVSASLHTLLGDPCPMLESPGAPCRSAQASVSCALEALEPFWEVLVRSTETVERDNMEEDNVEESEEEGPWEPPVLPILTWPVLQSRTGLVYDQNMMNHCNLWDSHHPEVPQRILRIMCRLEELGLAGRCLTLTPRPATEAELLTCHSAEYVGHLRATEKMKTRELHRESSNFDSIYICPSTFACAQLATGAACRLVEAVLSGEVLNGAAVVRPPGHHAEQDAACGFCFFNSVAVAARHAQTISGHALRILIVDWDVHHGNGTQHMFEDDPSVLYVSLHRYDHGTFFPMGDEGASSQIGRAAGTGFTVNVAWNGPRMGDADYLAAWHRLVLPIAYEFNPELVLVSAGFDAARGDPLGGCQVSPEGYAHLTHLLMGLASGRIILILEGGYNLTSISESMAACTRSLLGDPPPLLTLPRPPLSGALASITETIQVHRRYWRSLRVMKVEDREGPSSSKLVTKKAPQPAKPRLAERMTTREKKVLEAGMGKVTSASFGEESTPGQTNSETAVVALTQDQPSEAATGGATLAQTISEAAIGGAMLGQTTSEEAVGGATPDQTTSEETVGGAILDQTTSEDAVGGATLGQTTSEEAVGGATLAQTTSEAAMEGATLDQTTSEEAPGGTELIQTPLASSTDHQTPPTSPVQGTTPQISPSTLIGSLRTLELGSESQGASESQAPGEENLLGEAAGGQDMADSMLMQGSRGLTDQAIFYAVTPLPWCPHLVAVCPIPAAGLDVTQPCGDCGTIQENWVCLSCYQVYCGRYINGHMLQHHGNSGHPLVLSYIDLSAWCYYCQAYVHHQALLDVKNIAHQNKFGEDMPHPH

recombinant human HDAC8 = biological target: T2, recombinant human HDAC8 (Homo sapiens, UniProt Q9BY41); assay: Recombinant human HDAC8 activity assay; assay type: biochemical; details: 1 mM, recombinant human isoform
T2 sequence (Q9BY41 1-377): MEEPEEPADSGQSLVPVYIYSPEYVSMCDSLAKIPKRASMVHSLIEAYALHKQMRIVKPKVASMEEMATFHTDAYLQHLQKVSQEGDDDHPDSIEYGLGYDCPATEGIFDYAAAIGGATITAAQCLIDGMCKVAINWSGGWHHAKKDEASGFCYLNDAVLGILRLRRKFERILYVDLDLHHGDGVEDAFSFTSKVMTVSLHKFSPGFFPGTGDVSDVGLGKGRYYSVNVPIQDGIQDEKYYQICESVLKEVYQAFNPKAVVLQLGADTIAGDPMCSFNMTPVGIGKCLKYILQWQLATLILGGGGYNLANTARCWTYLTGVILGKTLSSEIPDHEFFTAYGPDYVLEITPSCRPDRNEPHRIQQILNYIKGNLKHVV

MCF7 cells [1] = assay: Colony formation assay in MCF7 cells; details: vector-transfected MCF7 cells, increasing concentrations, two weeks
recombinant human HDAC2 = recombinant human HDAC2 (Homo sapiens, UniProt Q92769); assay: Recombinant human HDAC2 activity assay; assay type: biochemical; details: 1 mM, recombinant human isoform
recombinant human HDAC5 = recombinant human HDAC5 (Homo sapiens, UniProt Q9UQL6); assay: Recombinant human HDAC5 activity assay; assay type: biochemical; details: 1 mM, recombinant human isoform
recombinant human HDAC1 = recombinant human HDAC1 (Homo sapiens, UniProt Q13547); assay: Recombinant human HDAC1 activity assay; assay type: biochemical; details: for inhibition of HDAC1: 1 mM, recombinant human isoform
recombinant human HDAC3 = recombinant human HDAC3 (Homo sapiens, UniProt O15379); assay: Recombinant human HDAC3 activity assay; assay type: biochemical; details: for inhibition of HDAC3: 1 mM, recombinant human isoform
human SLC5A8 [2] = biological target: T3, human SLC5A8 (Homo sapiens, UniProt Q8N695); assay: Substrate-induced currents in X. laevis oocytes expressing human SLC5A8; assay type: cell-based; details: for inward currents in SLC5A8-expressing oocytes: 1 mM compound, in the presence of NaCl, not detectable in absence of Na+, -50 mV; for K0.5 (substrate concentration for half-maximal current): saturation kinetics of substrate-induced currents, human SLC5A8 oocytes
T3 sequence (Q8N695 1-610): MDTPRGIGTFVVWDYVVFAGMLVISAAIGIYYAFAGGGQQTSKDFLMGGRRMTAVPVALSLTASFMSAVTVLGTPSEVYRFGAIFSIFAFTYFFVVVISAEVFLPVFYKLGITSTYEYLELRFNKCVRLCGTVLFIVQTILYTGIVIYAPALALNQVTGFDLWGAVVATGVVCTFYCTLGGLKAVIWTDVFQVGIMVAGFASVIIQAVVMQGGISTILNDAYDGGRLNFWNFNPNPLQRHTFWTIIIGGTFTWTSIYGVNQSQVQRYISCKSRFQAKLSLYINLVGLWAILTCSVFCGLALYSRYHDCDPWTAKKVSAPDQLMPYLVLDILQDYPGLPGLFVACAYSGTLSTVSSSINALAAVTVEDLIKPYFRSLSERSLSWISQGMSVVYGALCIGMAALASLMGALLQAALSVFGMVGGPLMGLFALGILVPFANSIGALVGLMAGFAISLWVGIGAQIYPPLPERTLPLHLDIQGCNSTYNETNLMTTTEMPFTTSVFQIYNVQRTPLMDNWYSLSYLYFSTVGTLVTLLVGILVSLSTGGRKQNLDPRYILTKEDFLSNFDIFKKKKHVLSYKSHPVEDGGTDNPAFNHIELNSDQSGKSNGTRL

MCF7 cells [3] = assay: Apoptosis of MCF7 cells by FACS analysis
human SLC5A8 [4] = biological target: T3, human SLC5A8; assay: Inhibition of [14C]nicotinate uptake via human SLC5A8 expressed in HRPE cells; assay type: cell-based
recombinant human HDAC9 = recombinant human HDAC9 (Homo sapiens, UniProt Q9UKV0); assay: Recombinant human HDAC9 activity assay; assay type: biochemical; details: 1 mM, recombinant human isoform
HDACs in MCF7 cells = assay: HDAC activity in lysates of MCF7 cells cultured with compound; details: vector-transfected MCF7 cells cultured with 1 mM compound
rat Slc5a8 = biological target: T4, rat Slc5a8 (Rattus norvegicus, UniProt D3Z9E5); assay: Inhibition of [14C]nicotinate uptake via rat Slc5a8 expressed in HRPE cells; assay type: cell-based; details: read-out: inhibition of nicotinate uptake
T4 sequence (D3Z9E5 1-611): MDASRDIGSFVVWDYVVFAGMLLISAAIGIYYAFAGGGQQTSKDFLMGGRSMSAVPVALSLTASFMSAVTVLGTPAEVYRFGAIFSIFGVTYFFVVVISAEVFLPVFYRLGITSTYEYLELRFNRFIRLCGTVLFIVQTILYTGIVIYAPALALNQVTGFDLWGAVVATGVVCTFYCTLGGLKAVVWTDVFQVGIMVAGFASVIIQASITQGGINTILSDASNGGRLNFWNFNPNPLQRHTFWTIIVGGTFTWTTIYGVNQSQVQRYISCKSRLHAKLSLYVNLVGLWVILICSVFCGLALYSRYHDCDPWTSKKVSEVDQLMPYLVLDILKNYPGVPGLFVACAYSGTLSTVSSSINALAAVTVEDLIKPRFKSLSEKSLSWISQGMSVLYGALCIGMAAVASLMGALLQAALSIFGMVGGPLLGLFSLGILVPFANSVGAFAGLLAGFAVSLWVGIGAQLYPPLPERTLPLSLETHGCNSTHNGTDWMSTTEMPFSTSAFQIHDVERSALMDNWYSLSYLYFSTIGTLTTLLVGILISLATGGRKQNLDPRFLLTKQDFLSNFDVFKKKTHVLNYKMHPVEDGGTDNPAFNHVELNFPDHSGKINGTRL

mouse Slc5a8 = biological target: T5, mouse Slc5a8 (Mus musculus, UniProt Q8BYF6); assay: Inhibition of [14C]nicotinate uptake via mouse Slc5a8 expressed in HRPE cells; assay type: cell-based; details: read-out: inhibition of nicotinate uptake
T5 sequence (Q8BYF6 1-611): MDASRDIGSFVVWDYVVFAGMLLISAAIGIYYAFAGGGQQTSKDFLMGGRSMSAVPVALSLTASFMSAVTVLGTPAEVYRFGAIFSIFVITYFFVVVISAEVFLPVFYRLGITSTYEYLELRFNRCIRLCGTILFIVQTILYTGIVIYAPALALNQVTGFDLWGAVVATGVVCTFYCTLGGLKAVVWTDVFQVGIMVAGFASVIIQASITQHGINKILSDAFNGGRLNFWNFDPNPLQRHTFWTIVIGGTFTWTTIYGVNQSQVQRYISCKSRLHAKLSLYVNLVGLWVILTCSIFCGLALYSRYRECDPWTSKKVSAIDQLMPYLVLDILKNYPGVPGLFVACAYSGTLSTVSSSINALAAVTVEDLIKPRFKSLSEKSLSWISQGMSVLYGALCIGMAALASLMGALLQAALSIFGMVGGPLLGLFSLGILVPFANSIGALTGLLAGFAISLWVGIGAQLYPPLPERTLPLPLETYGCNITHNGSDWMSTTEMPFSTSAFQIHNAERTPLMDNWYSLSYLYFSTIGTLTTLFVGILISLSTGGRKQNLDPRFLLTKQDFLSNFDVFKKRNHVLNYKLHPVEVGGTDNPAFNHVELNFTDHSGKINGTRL

[5] = Na+-activation kinetics of 3-bromopyruvate-induced currents
[6] = MCF7 cells ectopically expressing SLC5A8, 1 mM
[7] = vector-transfected MCF7 cells, 1 mM

Chain of recombinant human HDAC1 (Q13547 whole entry, canonical isoform): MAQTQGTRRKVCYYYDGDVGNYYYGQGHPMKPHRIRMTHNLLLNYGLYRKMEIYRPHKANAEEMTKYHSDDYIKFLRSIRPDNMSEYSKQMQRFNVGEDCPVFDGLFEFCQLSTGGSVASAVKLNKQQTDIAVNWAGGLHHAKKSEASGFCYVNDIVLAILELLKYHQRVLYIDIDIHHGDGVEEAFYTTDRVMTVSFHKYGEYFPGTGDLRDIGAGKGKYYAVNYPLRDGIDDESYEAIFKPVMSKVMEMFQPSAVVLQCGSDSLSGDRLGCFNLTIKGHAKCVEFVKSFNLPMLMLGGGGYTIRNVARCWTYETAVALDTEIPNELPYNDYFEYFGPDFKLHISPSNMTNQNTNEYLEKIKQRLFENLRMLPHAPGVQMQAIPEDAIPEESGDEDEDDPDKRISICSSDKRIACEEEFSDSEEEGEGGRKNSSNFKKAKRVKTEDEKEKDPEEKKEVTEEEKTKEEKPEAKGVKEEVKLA
Chain of recombinant human HDAC3 (O15379 whole entry, canonical isoform): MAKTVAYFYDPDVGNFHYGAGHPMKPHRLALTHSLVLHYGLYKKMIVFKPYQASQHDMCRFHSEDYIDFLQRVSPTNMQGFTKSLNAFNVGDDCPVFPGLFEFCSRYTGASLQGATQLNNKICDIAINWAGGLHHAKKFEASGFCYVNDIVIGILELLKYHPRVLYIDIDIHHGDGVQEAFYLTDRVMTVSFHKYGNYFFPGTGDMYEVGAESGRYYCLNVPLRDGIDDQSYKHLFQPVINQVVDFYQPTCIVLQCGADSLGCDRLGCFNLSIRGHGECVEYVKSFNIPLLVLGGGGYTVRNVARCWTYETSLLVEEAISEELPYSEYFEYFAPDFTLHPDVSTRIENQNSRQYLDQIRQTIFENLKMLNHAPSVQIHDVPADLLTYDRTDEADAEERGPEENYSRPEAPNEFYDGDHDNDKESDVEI
Chain of recombinant human HDAC3 (Q9Y618 395-489 partner limits assumed): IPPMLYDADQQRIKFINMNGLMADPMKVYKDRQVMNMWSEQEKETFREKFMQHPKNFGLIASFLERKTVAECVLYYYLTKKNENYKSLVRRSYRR
Chain of recombinant human HDAC2 (Q92769 whole entry, canonical isoform): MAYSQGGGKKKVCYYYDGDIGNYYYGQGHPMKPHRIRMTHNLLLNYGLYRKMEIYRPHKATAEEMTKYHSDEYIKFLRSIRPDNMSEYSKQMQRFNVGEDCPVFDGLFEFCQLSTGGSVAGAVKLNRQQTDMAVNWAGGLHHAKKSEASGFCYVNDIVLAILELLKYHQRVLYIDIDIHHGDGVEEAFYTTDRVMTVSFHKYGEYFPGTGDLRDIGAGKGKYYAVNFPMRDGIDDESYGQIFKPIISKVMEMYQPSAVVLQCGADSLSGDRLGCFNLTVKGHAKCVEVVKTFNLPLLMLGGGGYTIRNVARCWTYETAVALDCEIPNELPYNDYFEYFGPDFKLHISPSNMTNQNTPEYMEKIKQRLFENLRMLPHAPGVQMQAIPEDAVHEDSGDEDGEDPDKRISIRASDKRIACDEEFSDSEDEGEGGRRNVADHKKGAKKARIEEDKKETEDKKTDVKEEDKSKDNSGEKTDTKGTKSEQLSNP
Chain of recombinant human HDAC9 (Q9UKV0 whole entry, canonical isoform): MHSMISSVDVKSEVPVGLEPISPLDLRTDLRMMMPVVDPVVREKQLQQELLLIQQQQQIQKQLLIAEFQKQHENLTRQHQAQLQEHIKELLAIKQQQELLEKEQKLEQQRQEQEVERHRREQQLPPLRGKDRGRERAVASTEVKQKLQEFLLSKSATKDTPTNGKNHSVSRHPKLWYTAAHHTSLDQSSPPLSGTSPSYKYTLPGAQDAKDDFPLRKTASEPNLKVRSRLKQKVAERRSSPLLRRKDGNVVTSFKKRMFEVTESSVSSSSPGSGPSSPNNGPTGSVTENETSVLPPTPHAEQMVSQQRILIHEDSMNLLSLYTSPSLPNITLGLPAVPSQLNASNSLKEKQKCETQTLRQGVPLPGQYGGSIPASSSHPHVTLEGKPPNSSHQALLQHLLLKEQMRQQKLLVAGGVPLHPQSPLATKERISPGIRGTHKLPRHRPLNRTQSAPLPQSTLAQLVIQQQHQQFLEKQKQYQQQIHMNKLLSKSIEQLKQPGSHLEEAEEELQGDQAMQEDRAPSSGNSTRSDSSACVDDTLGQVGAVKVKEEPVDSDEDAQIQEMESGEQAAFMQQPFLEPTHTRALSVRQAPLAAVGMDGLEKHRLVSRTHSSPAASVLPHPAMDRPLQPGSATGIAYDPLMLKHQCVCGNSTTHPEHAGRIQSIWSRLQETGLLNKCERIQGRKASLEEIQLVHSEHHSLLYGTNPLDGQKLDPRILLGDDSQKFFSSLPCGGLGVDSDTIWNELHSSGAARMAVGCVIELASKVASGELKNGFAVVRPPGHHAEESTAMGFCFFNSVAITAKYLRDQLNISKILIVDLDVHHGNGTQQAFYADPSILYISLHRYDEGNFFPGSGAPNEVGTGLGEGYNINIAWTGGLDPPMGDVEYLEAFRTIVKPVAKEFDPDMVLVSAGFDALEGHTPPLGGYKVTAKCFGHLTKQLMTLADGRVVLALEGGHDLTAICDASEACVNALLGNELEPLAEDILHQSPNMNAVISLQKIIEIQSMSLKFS
Chain of recombinant human HDAC5 (Q9UQL6 whole entry, canonical isoform): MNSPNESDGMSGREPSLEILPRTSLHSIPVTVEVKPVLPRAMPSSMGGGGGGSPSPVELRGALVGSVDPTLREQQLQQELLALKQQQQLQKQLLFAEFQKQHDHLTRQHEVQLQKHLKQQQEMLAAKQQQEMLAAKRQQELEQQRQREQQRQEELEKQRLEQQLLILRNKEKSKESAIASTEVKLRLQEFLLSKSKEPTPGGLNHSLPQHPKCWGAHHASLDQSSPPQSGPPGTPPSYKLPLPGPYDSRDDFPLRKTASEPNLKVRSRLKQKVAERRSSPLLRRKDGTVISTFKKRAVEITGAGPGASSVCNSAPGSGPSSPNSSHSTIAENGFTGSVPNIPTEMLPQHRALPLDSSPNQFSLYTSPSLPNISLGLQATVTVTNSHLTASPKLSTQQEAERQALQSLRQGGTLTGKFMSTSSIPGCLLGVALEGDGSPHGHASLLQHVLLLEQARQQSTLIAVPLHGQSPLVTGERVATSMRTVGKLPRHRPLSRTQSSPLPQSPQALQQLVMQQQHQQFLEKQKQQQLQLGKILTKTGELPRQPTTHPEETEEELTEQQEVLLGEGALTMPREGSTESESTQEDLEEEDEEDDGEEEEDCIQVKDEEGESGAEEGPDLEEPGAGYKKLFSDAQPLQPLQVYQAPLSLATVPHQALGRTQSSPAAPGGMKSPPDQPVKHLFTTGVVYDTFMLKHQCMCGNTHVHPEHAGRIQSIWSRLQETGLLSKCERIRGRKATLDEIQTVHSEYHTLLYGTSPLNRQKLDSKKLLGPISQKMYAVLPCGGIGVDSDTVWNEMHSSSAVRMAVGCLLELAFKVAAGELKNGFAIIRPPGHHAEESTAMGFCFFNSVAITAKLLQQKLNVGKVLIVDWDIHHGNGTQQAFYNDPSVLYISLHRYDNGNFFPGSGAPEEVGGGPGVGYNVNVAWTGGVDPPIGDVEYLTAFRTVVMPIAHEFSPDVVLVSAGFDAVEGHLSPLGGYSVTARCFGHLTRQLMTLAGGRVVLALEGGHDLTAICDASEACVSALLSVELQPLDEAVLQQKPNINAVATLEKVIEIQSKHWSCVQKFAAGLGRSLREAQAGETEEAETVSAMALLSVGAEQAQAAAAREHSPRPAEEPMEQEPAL

## O=C(O)C(=O)CBr [3-bromopyruvate]
Recombinant human HDAC6
  inhibition of HDAC6: inhibited to a lesser, but significant, extent
Recombinant human HDAC8
  effect on HDAC8: no effect
MCF7 cells [1]
  colony formation (cell viability): affected only minimally
Recombinant human HDAC2
  inhibition of HDAC2: inhibited to a lesser, but significant, extent
Recombinant human HDAC5
  effect on HDAC5: no effect
Recombinant human HDAC1
  inhibition of HDAC1: marked inhibition
Recombinant human HDAC3
  inhibition of HDAC3: marked inhibition
Human SLC5A8 [2]
  inward currents in SLC5A8-expressing oocytes: induced inward currents
  K0.5 (substrate concentration for half-maximal current): 495 ± 25 µM
Human SLC5A8 [2]; 1 mM, pyruvate-induced current taken as 100%, four oocytes
  current induced relative to current induced by pyruvate: approximately 50%
Human SLC5A8 [2]; [5]
  Hill coefficient for the activation of transport by Na+: 1.4 ± 0.2
  K0.5 value for Na+ to activate the transport process: 32 ± 4 mM
Human SLC5A8 [2]; conclusion from Na+-dependent inward currents at 1 mM
  transportable substrate or blocker of SLC5A8: transportable substrate
MCF7 cells [3]; [6]
  apoptosis (FACS): induced marked apoptosis
MCF7 cells [3]; MCF7 cells with HDAC1 or HDAC3 silenced by siRNA, then 3-bromopyruvate 1 mM 48 h
  apoptosis (FACS), added effect after siRNA silencing: did not have any added effect
MCF7 cells [3]; MCF7 cells with HDAC2 silenced by siRNA, 3-bromopyruvate 1 mM 48 h
  apoptosis (FACS) after siRNA silencing: did not cause apoptosis
MCF7 cells [3]; [7]
  apoptosis (FACS): not affected
Human SLC5A8 [4]; read-out: IC50 for the inhibition of human SLC5A8 (nicotinate uptake), human SLC5A8 in HRPE cells, [14C]nicotinate 15 μM, 15 min, means ± S.E.
  IC50: 32 ± 9 µM
Recombinant human HDAC9
  effect on HDAC9: no effect
HDACs in MCF7 cells
  change in HDAC activity: no change in HDAC activity

## CC(=O)C(=O)O [pyruvate]
Rat Slc5a8
  inhibition at 1000 µM: 60%
MCF7 cells [1]
  colony formation (cell viability): affected only minimally
Mouse Slc5a8
  inhibition at 1000 µM: 75%
Recombinant human HDAC1
  IC50: 30 ± 14 µM
  inhibition of HDAC1: inhibited HDAC1 and HDAC3 preferentially
Recombinant human HDAC3
  IC50: 40 ± 11 µM
  inhibition of HDAC3: inhibited HDAC1 and HDAC3 preferentially
Human SLC5A8 [2]
  inward currents in SLC5A8-expressing oocytes: induced inward currents
  K0.5 (substrate concentration for half-maximal current): 312 ± 16 µM
Human SLC5A8 [2]; 1 mM, four oocytes, NaCl buffer
  substrate-induced current: 215 ± 45 nA
MCF7 cells [3]; [6]
  apoptosis (FACS): induced marked apoptosis
MCF7 cells [3]; [7]
  apoptosis (FACS): not affected
Human SLC5A8 [4]
  IC50: 652 ± 139 µM
Human SLC5A8 [4]; HRPE, read-out: inhibition of nicotinate uptake
  inhibition at 1000 µM: 55%
HDACs in MCF7 cells
  change in HDAC activity: no change in HDAC activity
